Usually IC50 stands for the point on the concentration scale where inhibition reaches its midpoint. Low readings indicate greater potency, high ones weaker potency. For orientation: clearance means a measure of how efficiently the substance is removed, as volume per time. As usually defined, the bioavailability is dose-corrected exposure relative to a reference, in per cent.

One data set has as its target T1, NLRP3 (Rattus norvegicus, UniProt D4A523).
T1 construct: Newborn SD rats were used to obtain mixed glial cells from the cerebral cortex; endogenous in cells; host or cells: primary microglia from the cerebral cortex of newborn SD rats, LPS-primed, nigericin-stimulated
Put plainly: LPS-stimulated IL-1β release assay in rat primary microglia. The format is cell-based. The following applies: LPS 50 ng/ml 3 h, compound 0.5 h, Nigericin 0.3 μg/mL 1 h, IL-1β ELISA. (In general: ELISA stands for enzyme-linked immunosorbent assay.)

The nature of data set [1]: Pharmacokinetic evaluation in SD rats in vivo. On the set-up: species or system SD rat. The method, then: (§1) The pharmacokinetic characteristics of the compound in rodents after intravenous injection and oral administration were tested according to the standard protocol. In the experiment, the candidate compound was formulated into clear solutions, and a single intravenous injection and oral administration were given to SD rats. The vehicle for intravenous injection and oral administration was a mixed vehicle composed of 5% dimethyl sulfoxide and 95% solutol with a content of 5%. Four male SD rats were used in this project. Two SD rats were administered via intravenous injections, and plasma samples were collected at 0.083, 0.25, 0.5, 1, 2, 4, 8, and 24 h post-administration. The other two SD rats were administered orally by gavage, and plasma samples were collected at 0.25, 0.5, 1, 2, 4, 8, and 24 h post-administration. Plasma concentrations were quantitatively analyzed by LC-MS/MS analysis method, and pharmacokinetic parameters such as peak concentration (Cmax), clearance (CL), half-life (T1/2), volume of distribution at steady state (Vdss), area under the drug-time curve (AUC0-last), and bioavailability (F) were calculated.
as §1, with “injections at a dose of 2 mg/kg,” for “injections,”, “gavage at a dose of 10 mg/kg,” for “gavage,”

Data set [2] is described as follows: Pharmacokinetic evaluation in beagle dogs in vivo. On the set-up: species or system beagle dog. The method, then:
as §1, with “beagle dogs” for “rodents”, “after” for “after intravenous injection and”, “beagle dogs.” for “SD rats.”, “beagle dogs” for “SD rats”, “injections at a dose of 1 mg/kg,” for “injections,”, “gavage at a dose of 2 mg/kg,” for “gavage,”

The mark [3] stands for this setting: IV and PO, oral bioavailability, oral exposure, half-life, clearance.

T1 sequence (D4A523 whole entry): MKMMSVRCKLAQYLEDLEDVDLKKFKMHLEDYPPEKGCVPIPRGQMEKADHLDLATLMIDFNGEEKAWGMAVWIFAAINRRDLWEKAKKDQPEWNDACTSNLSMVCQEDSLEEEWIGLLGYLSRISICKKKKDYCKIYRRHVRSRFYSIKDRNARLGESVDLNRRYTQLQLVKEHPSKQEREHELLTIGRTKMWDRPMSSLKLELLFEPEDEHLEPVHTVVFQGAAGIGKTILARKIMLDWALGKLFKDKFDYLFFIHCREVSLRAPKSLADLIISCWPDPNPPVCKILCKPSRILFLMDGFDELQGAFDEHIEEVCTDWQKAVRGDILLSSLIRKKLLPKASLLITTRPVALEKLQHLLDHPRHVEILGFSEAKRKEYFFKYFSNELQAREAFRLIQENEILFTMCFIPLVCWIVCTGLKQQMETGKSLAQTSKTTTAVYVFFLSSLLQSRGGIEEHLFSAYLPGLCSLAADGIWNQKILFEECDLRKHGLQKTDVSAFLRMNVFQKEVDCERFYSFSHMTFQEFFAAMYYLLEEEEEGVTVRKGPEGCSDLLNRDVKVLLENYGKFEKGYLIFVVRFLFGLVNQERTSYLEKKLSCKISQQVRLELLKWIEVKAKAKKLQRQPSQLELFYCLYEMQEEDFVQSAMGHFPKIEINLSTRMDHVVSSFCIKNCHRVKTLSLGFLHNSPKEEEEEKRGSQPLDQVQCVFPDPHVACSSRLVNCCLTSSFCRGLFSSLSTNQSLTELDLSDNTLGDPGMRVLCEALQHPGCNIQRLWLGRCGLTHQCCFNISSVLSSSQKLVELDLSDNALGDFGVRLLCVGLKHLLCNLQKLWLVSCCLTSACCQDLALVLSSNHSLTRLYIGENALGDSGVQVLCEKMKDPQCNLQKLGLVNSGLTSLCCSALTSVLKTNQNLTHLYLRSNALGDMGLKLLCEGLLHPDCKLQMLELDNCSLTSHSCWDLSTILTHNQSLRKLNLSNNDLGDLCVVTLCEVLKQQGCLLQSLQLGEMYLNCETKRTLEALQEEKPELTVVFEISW
Description for NLRP3: This experiment utilized rat primary microglia to study the inhibitory activity of NLRP3 inhibitors on the secretion of IL-1β in rat primary microglia.
Newborn SD rats were used to obtain mixed glial cells from the cerebral cortex through digestion and separation, and the cells were seeded into culture flasks for cultivation. The culture medium was replaced every 3-4 days, and the cells were cultured for approximately 10 days until they reached full confluence. The microglial cells were then collected through shaking at 37° C. and centrifugation, and were seeded into a 96-well cell culture plate for overnight cultivation. The cells were then transferred to serum-free medium and treated with 50 ng/ml LPS for 3 hours. Different concentrations of the compounds were added for 0.5 hours, followed by the addition of 0.3 μg/mL Nigericin for 1 hour. The supernatant was collected and either stored at −80° C. or directly detected for IL-1β release using an ELISA kit, following the manufacturer's instructions. Data processing involved using 10 μM of the positive compound group as the low value (L) and the DMSO group as the high value (H). The inhibition rate of the compound was calculated using the formula: Inhibition %=(Ave_H-Sample)/(Ave_H−Ave_L)*100, and the IC50 of the compound was calculated using the nonlinear regression equation: Y=Bottom+(Top−Bottom)/(1+10∧((LogIC50−X)*HillSlope)).

In the case of `[2H]C([2H])([2H])N1CCC[C@@H](Nc2cc(C)c(-c3ccc4sccc4c3O)nn2)C1` [Compound II], half-maximal inhibition on NLRP3 (IC50) was put at 0.0358 µM. Moreover, the “pharmacokinetic properties in SD rats in vivo (in words)” value in data set [1] (setting [3]) is listed as “good pharmacokinetic properties”. The AUC(0-t) was determined as 1.87 µM·h in data set [1] (male, rat, plasma, IV 2 mg/kg, read-out: Area under drug-time curve AUC0-last IV); 2.35 µM·h in data set [1] (male, rat, plasma, PO 10 mg/kg, read-out: Area under drug-time curve AUC0-last PO); 1.92 µM·h in data set [2] (male, dog, plasma, IV 1 mg/kg, read-out: Area under drug-time curve AUC0-last IV); 3.11 µM·h in data set [2] (male, dog, plasma, PO 2 mg/kg, read-out: Area under drug-time curve AUC0-last PO). The clearance is 47.4 mL/min/kg in data set [1] (male, rat, plasma, IV 2 mg/kg, read-out: Clearance CL) and 25.7 mL/min/kg in data set [2] (male, dog, plasma, IV 1 mg/kg, read-out: Clearance CL). Further, the half-life in data set [1] (male, rat, plasma, IV 2 mg/kg, read-out: Half-life T1/2 (IV) (converted)) is 1.82 h; in data set [2] (male, dog, plasma, IV 1 mg/kg, read-out: Half-life T1/2 (IV) (converted)), 3.53 h. The Vd in data set [1] (male, rat, plasma, IV 2 mg/kg, read-out: Volume of distribution at steady state Vdss) is 6.99 L/kg; in data set [2] (male, dog, plasma, IV 1 mg/kg, read-out: Volume of distribution at steady state Vdss) it was 6.9 L/kg. In addition, the bioavailability was found to be 27.1% in data set [1] (male, rat, plasma, PO 10 mg/kg vs IV 2 mg/kg, read-out: Bioavailability F) and 80.9% in data set [2] (male, dog, plasma, PO 2 mg/kg vs IV 1 mg/kg, read-out: Bioavailability F). For the same compound, the Cmax amounted to 593 nM in data set [1] (male, rat, plasma, oral gavage 10 mg/kg (route not given), read-out: Peak concentration Cmax) and 504 nM in data set [2] (male, dog, plasma, oral gavage 2 mg/kg (route not given), read-out: Peak concentration Cmax). The “pharmacokinetic properties in beagle dogs in vivo (in words)” value in data set [2] (setting [3]) was “good pharmacokinetic properties”.
